Data reported in article PMC5827756, “Inhibition of Heat Shock proteins HSP90 and HSP70 induce oxidative stress, suppressing cotton fiber development” (Scientific Reports, 2018).

Target: T1, human HSP70 (Homo sapiens, UniProt P0DMV8)
T1 construct: gene HSPA1A
Assay: citrate synthase thermoprotection (chaperone) assay, […] nm DTNB
Assay type: biochemical
Details: 0.5 µM porcine heart citrate synthase, 1.8 µM HSP, 43 °C, 50 mM HEPES pH 8.0; activity read at 25 °C; inhibitor concentration not stated

T1 sequence (P0DMV8 2-641): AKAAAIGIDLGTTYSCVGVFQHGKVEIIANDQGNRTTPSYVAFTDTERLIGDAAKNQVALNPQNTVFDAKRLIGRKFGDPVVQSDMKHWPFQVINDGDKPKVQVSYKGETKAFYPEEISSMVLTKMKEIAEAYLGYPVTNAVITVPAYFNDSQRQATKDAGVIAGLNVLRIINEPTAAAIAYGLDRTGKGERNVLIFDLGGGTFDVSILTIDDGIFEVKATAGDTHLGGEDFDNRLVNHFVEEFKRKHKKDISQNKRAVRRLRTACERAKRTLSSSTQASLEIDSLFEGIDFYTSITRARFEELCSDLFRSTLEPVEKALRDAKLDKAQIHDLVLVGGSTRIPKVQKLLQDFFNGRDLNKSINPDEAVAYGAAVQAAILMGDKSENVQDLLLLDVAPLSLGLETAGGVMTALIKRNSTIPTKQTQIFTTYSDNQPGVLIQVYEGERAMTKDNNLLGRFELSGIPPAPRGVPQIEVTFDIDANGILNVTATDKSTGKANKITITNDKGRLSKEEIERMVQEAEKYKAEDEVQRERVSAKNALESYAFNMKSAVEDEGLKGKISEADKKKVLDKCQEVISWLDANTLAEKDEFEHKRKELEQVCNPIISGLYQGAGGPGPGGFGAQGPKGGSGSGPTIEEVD

SMILES: NS(=O)(=O)C#Cc1ccccc1 [Pif, pifithrin]
- citrate synthase thermoprotection (chaperone) assay, 412 nm DTNB: Similarly, Pif also inhibits thermos-protection by HSP70
